In patent US10961309B2, “Reducing systemic regulatory T cell levels or activity for treatment of disease and injury of the CNS” (Yeda Research and Development Co. Ltd, priority 2014, dated 2021):

How the values were obtained:
[1] = tested on: soluble Aβ1-40 and Aβ1-42; experiment: Soluble Aβ (sAβ) protein quantification by ELISA; type: in vivo, mouse; conditions: 3 weeks after 1 week ATRA treatment, AD-Tg mice
Method: Tissue homogenization and sAβ protein extraction was performed as previously described (Schmidt et al, 2005). Briefly, cerebral brain parenchyma was dissected and snap-frozen and kept at −80° C. until homogenization. Proteins were sequentially extracted from samples to obtain separate fractions containing proteins of differing solubility. Samples were homogenized in 10 volumes of ice-cold tissue homogenization buffer, containing 250 mM of sucrose, 20 mM of Tris base, 1 mM of ethylenediaminetetraacetic acid (EDTA), and 1 mM of ethylene glycol tetraacetic acid (pH 7.4), using a ground glass pestle in a Dounce homogenizer. After six strokes, the homogenate was mixed 1:1 with 0.4% diethylamine (DEA) in a 100-mM NaCl solution before an additional six strokes, and then centrifuged at 135,000 g at 4° C. for 45 min. The supernatant (DEA-soluble fraction containing extracellular and cytosolic proteins) was collected and neutralized with 10% of 0.5M of Tris-HCl (pH 6.8). Aβ1-40 and Aβ1-42 were individually measured by enzyme-linked immunosorbent assay (ELISA) from the soluble fraction using commercially available kits (Biolegend; #SIG-38954 and #SIG-38956, respectively) according to the manufacturer instructions.

[2] = tested on: APP/PS1 mouse model of AD; conditions: weekly administration regimen (Butovsky et al, 2006); cited from earlier work

Molecule | cerebral sAβ1-40 and sAβ1-42 levels [1] | effect in the APP/PS1 mouse model of AD [2]
CC1=C(/C=C/C(C)=C/C=C/C(C)=C/C(=O)O)C(C)(C)CCC1 [ATRA, All-trans retinoic acid] | increased | –
Glatiramer acetate [GA] | – | therapeutic effect
